Here are results for two compounds from patent publication US9777010B2, “Substituted 4-phenylpiperidines, their preparation and use” (THE TRUSTEES OF COLUMBIA UNIVERSITY IN THE CITY OF NEW YORK, priority 2014, dated 2017).

The target of one assay is RBP4-TTR interaction (Homo sapiens (Human), UniProt P02753). The assay can be described thus: TR-FRET (HTRF) assay for retinol-induced RBP4-TTR interaction. Conditions: in the presence of 1 μM retinol; read-out: HTRF assay for antagonists of RBP4-TTR interaction: IC50. It is filed as biochemical. As to the method: Binding of a desired RBP4 antagonist displaces retinol and induces hindrance for RBP4-TTR interaction resulting in the decreased FRET signal (FIG. 7). Bacterially expressed MBP-RBP4 and untagged TTR were used in this assay. […] Following cell lysis, recombinant RBP4 was purified from the soluble fraction using the ACTA FPLC system (GE Healthcare) equipped with the 5-ml the MBP Trap HP column. Human untagged TTR was purchased from Calbiochem. […] HTRF assay was performed in white low volume 384 well plates (Greiner-Bio) in a final assay volume of 16 μl per well. The reaction buffer contained 10 mM Tris-HCl pH 7.5, 1 mM DTT, 0.05% NP-40, 0.05% Prionex, 6% glycerol, and 400 mM KF. […] Titration of test compounds in this assay was conducted in the presence of 1 μM retinol. All reactions were assembled in the dark under dim red light and incubated overnight at +4° C. wrapped in aluminum foil. TR-FRET signal was measured in the SpectraMax M5e Multimode Plate Reader (Molecular Device). […] The TR-FRET signal was expressed as the ratio of fluorescence intensity: Flu665/Flu620×10,000.

The next assay has as its system serum RBP4 and retinol. Conditions: in vivo; cited from earlier work.

`COCCN1CCc2c(C(=O)N3CCC(c4cccc(F)c4C(F)(F)F)CC3)n[nH]c2C1` [Compound 77, (4-(3-Fluoro-2-(trifluoromethyl)phenyl)piperidin-1-yl)(6-(2-methoxyethyl)-4,5,6,7-tetrahydro-3aH-pyrazolo[3,4-c]pyridin-3-yl)methanone]: the IC50 at RBP4-TTR interaction was determined as 1.62 nM.

For `CC1=C(/C=C/C(C)=C/C=C/C(C)=C/C(=O)Nc2ccc(O)cc2)C(C)(C)CCC1` [fenretinide, N-(4-hydroxy-phenyl)retinamide], the “serum RBP4 and retinol” value with serum RBP4 and retinol is “reduce serum RBP4 and retinol”.
